Molecules are shown by their SMILES. “Also recorded” adds a separate entry of the source.

For the assay, the system named is human reference serum 007sp. The assay is described as follows: Glycan array, antibody binding from human reference serum 007sp with CPS/CWPS competition. The conditions noted are these: glycan array competition experiment, serum 007sp (FIG. 5, FIG. 6), 24* compared with 16*. As to the method:
Pyruvated SP4 tetrasaccharide 24* was dissolved at 10 mM in water and diluted to 100 μM and 50 μM in coupling buffer (50 mM sodium phosphate, pH 8.5). Each concentration was spotted in duplicates to CodeLink activated glass slides (Surmodics) alongside a number of related structures and native polysaccharides (see FIG. 4 for printing pattern) using a Scienion S3 microarray printer at 65% relative humidity. The slides were incubated in a humidity saturated chamber overnight. They were washed twice with water and quenched by incubation with 100 mM ethanolamine, 50 mM sodium phosphate pH 9 for one hour at room temperature. They were washed again twice, dried by centrifugation and stored at 4° C. until use.
Slides were blocked by incubation with 1% BSA-PBS at room temperature, washed twice with PBS and dried by centrifugation. A 64 well incubation gasket was attached to the glass slides.
Sera (rabbit SP4 typing serum (SSI Diagnostica, Denmark) or human reference serum 007sp (Clin. Vaccine Immunol. 2011 18 (10), 1728)) were diluted in 1% BSA-PBS containing no competitors or native SP4 CPS (capsular polysaccharide) or CWPS (S. pneumoniae cell wall polysaccharide) as competitors. […] It was dried by centrifugation and the fluorescence was read out using s GenePix 4300a fluorescence reader.

As for `CC(=O)N[C@@H]1[C@H](O[C@@H]2[C@H](O)[C@H](C)O[C@@H](O[C@H]3[C@@H](O)[C@@H](CO)O[C@H](O[C@@H]4[C@H](O)[C@@H](O)[C@@H](OCCCCCN)O[C@@H]4CO)[C@@H]3NC(C)=O)[C@H]2NC(C)=O)O[C@H](CO)[C@@H](O)[C@@H]1O` [compound 16*, N-((2R,3S,4R,5S,6R)-2-(((2S,3S,4S,5R,6S)-3-acetamido-2-(((2R,3R,4R,5R,6R)-3-acetamido-2-(((2R,3R,4R,5R,6S)-6-((5-aminopentyl)oxy)-4,5-dihydroxy-2-(hydroxymethyl)tetrahydro-2H-pyran-3-yl)oxy)-5-hydroxy-6-(hydroxymethyl)tetrahydro-2H-pyran-4-yl)oxy)-5-hydroxy-6-methyltetrahydro-2H-pyran-4-yl)oxy)-4,5-dihydroxy-6-(hydroxymethyl)tetrahydro-2H-pyran-3-yl)acetamide], the “inhibition (decline) of signal by native S. pneumoniae serotype 4 CPS” value is “Compared to unpyruvated tetrasaccharide 16*, the signal for the pyruvated saccharide 24* can be inhibited far more efficiently; also recorded: much stronger for pyruvated tetrasaccharide 24* (spot B) compared with unpyruvated tetrasaccharide 16*”.

Source of the values: patent publication US10188718B2, “Vaccines against Streptococcus pneumoniae serotype 4” (MAX-PLANCK-GESELLSCHAFT ZUR FÖRDERUNG DER WISSENSCHAFTEN …, priority 2014, dated 2019).
